For 17 compounds, EC50 results are on record in patent US9499550B2 (BRISTOL-MYERS SQUIBB COMPANY, priority 2012, dated 2016).

The subject of assay [1] is HCV genotype 1b (Con1) replicon in HUH-7 cells. Put plainly: HCV replicon luciferase reporter assay, genotype 1b. The assay is classed as cell-based. To be noted: Hepatitis C virus, Huh-7, 72 h, HCV genotype 1b replicon luciferase, 3 days incubation. The gist of the method: (§1)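 Replicon inhibition for both genotypes was measured as Renilla luciferase signal (EnduRen, 7.5 μM final, 2 h) after 3-day, 37° C exposure of replicon-bearing HUH-7 cells in 4% FCS DMEM, 0.5% DMSO. The 1b construct carries S1179I; the 1a H77 construct carries P1496L and S2204I. Twenty-point, 3-fold dilutions were fitted four-parametrically for EC50, and CC50 was taken from multiplexed Cell Titer-Blue.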

The test system of assay [2] is HCV genotype 1a (H77 strain) replicon in HUH-7 cells. The assay is described as follows: HCV replicon luciferase reporter assay, genotype 1a. It counts as cell-based. Conditions: Hepatitis C virus, Huh-7, 72 h, HCV genotype 1a replicon luciferase, 3 days incubation. The gist of the method:
as §1

The mark [3] stands for this setting: GETYPE1B, read-out: LE_1b (EC50, range).
[4] abbreviates: GETYPE1A, read-out: LE_1a (EC50, range).

Read-outs that look alike come from different tables or passages of the source.

Take `COc1ccc2nc(C(C)C)c(O[C@@H]3C[C@H]4C(=O)N[C@]5(C(=O)NS(=O)(=O)C6(C)CC6)C[C@H]5/C=C\CC[C@@H](C)C[C@@H](C)[C@H](NC(=O)OC(C)(C)C(F)(F)F)C(=O)N4C3)nc2c1` [Compound 4259]: the EC50 lay in the range of 0.51 to 1 nM in assay [1] (setting [3]) and 1.01 to 5 nM in assay [2] (setting [4]).

With `COc1ccc2nc(O[C@@H]3C[C@H]4C(=O)N[C@]5(C(=O)NS(=O)(=O)C6(C)CC6)C[C@H]5/C=C\CC[C@@H](C)C[C@@H](C)[C@H](NC(=O)OC(C)(C)C)C(=O)N4C3)c(-c3ccc(OC(C)C)cc3)nc2c1` [Compound 4260, tert-butyl ((2R,6S,7R,9R,13aS,14aR,16aS,Z)-2-((3-(4-isopropoxyphenyl)-6-methoxyquinoxalin-2-yl)oxy)-7,9-dimethyl-14a-(((1-methylcyclopropyl)sulfonyl)carbamoyl)-5,16-dioxo-1,2,3,5,6,7,8,9,10,11,13a,14,14a,15,16,16a-hexadecahydrocyclopropa[e]pyrrolo[1,2-a][1,4]diazacyclopentadecin-6-yl)carbamate], the EC50 in assay [1] (read-out: LE_1b (EC50, range)) was 1.01 to 5 nM; in assay [2] (read-out: LE_1a (EC50, range)), 1.01 to 5 nM.

For the compound `COc1ccc2nc(O[C@@H]3C[C@H]4C(=O)N[C@]5(C(=O)NS(=O)(=O)C6(C)CC6)C[C@H]5/C=C\CC[C@@H](C)C[C@@H](C)[C@H](NC(=O)OC(C)(C)C(F)(F)F)C(=O)N4C3)c(-c3ccc(OC(C)C)cc3)nc2c1` [Compound 4261], the EC50 in assay [1] (setting [3]) lay within 1.01 to 5 nM; in assay [2] (setting [4]), 5.01 to 35 nM.

As for `CC[C@@H]1C[C@H](C)CC/C=C\[C@@H]2C[C@@]2(C(=O)NS(=O)(=O)C2CC2)NC(=O)[C@@H]2C[C@@H](Oc3nc4cc(OC)ccc4nc3O)CN2C(=O)[C@H]1NC(=O)OC(C)(C)C` [Compound 4262], the EC50 fell in the range of 35 to 620 nM in assay [1] (read-out: LE_1b (EC50, range)) and 35 to 620 nM in assay [2] (read-out: LE_1a (EC50, range)).

For the compound `CC[C@@H]1C[C@H](C)CC/C=C\[C@@H]2C[C@@]2(C(=O)NS(=O)(=O)C2CC2)NC(=O)[C@@H]2C[C@@H](Oc3nc4cc(OC)ccc4nc3C(F)(F)F)CN2C(=O)[C@H]1NC(=O)OC(C)(C)C(F)(F)F` [Compound 4263], the EC50 in assay [1] (setting [3]) lay in the range of 0.51 to 1 nM; in assay [2] (setting [4]) it was 1.01 to 5 nM.

`CC[C@@H]1C[C@H](C)CC/C=C\[C@@H]2C[C@@]2(C(=O)NS(=O)(=O)C2CC2)NC(=O)[C@@H]2C[C@@H](Oc3nc4cc(OC)c(F)cc4nc3O)CN2C(=O)[C@H]1NC(=O)OC(C)(C)C` [Compound 4265, tert-butyl ((2R,6S,7R,9R,13aS,14aR,16aS,Z)-14a-((cyclopropylsulfonyl)carbamoyl)-7-ethyl-2-((6-fluoro-3-hydroxy-7-methoxyquinoxalin-2-yl)oxy)-9-methyl-5,16-dioxo-1,2,3,5,6,7,8,9,10,11,13a,14,14a,15,16,16a-hexadecahydrocyclopropa[e]pyrrolo[1,2-a][1,4]diazacyclopentadecin-6-yl)carbamate]: the EC50 was 475 nM in assay [1] (read-out: LE_1b (EC50)); 35 to 620 nM in assay [1] (read-out: LE_1b (EC50, range)); 616 nM in assay [2] (read-out: LE_1a (EC50)); 35 to 620 nM in assay [2] (read-out: LE_1a (EC50, range)).

As for `CC[C@@H]1C[C@H](C)CC/C=C\[C@@H]2C[C@@]2(C(=O)NS(=O)(=O)C2CC2)NC(=O)[C@@H]2C[C@@H](Oc3nc4cc(OC)c(F)cc4nc3C(F)(F)F)CN2C(=O)[C@H]1NC(=O)OC(C)(C)C` [Compound 4266, tert-butyl ((2R,6S,7R,9R,13aS,14aR,16aS,Z)-14a-((cyclopropylsulfonyl)carbamoyl)-7-ethyl-2-((6-fluoro-7-methoxy-3-(trifluoromethyl)quinoxalin-2-yl)oxy)-9-methyl-5,16-dioxo-1,2,3,5,6,7,8,9,10,11,13a,14,14a,15,16,16a-hexadecahydrocyclopropa[e]pyrrolo[1,2-a][1,4]diazacyclopentadecin-6-yl)carbamate], the EC50 was in the range of 1.01 to 5 nM in assay [1] (read-out: LE_1b (EC50, range)) and 1.01 to 5 nM in assay [2] (read-out: LE_1a (EC50, range)).

As for `CC[C@@H]1C[C@H](C)CC/C=C\[C@@H]2C[C@@]2(C(=O)NS(=O)(=O)C2CC2)NC(=O)[C@@H]2C[C@@H](Oc3nc4cc(OC)c(F)cc4nc3C(F)(F)F)CN2C(=O)[C@H]1NC(=O)OC(C)(C)C(F)(F)F` [Compound 4267], the EC50 lay in the range of 1.01 to 5 nM in assay [1] (setting [3]) and 5.01 to 35 nM in assay [2] (setting [4]).

On to `CC[C@@H]1C[C@H](C)CC/C=C\[C@@H]2C[C@@]2(C(=O)NS(=O)(=O)C2(C)CC2)NC(=O)[C@@H]2C[C@@H](Oc3nc4cc(OC)c(F)cc4nc3C(F)(F)F)CN2C(=O)[C@H]1NC(=O)OC(C)(C)C(F)(F)F` [Compound 4268], for which the EC50 in assay [1] (setting [3]) and in assay [2] (setting [4]) was 1.01 to 5 nM throughout.

Take `CC[C@@H]1C[C@H](C)CC/C=C\[C@@H]2C[C@@]2(C(=O)NS(=O)(=O)C2(C)CC2)NC(=O)[C@@H]2C[C@@H](Oc3ncc(N(CC)CC)c4cc(OC)ccc34)CN2C(=O)[C@H]1NC(=O)OC(C)(C)C(F)(F)F` [Compound 4269]: the EC50 in assay [1] (setting [3]) and in assay [2] (setting [4]) was 1.01 to 5 nM each time.

On to `CC[C@@H]1C[C@H](C)CC/C=C\[C@@H]2C[C@@]2(C(=O)NS(=O)(=O)C2CC2)NC(=O)[C@@H]2C[C@@H](Oc3nc4cc(OC)ccc4nc3Cl)CN2C(=O)[C@H]1NC(=O)OC(C)(C)C` [Compound 4270, tert-butyl ((2R,6S,7R,9R,13aS,14aR,16aS,Z)-2-((3-chloro-7-methoxyquinoxalin-2-yl)oxy)-14a-((cyclopropylsulfonyl)carbamoyl)-7-ethyl-9-methyl-5,16-dioxo-1,2,3,5,6,7,8,9,10,11,13a,14,14a,15,16,16a-hexadecahydrocyclopropa[e]pyrrolo[1,2-a][1,4]diazacyclopentadecin-6-yl)carbamate], for which the half-maximal effective concentration (EC50) in assay [1] (read-out: LE_1b (EC50, range)) lay within 0.1 to 0.5 nM; in assay [2] (read-out: LE_1a (EC50, range)), 1.01 to 5 nM.

For `CC[C@@H]1C[C@H](C)CC/C=C\[C@@H]2C[C@@]2(C(=O)NS(=O)(=O)C2CC2)NC(=O)[C@@H]2C[C@@H](Oc3nc4cc(OC)ccc4nc3Cl)CN2C(=O)[C@H]1NC(=O)OC(C)(C)C(F)(F)F` [Compound 4271], the EC50 is 0.1 to 0.5 nM in assay [1] (setting [3]) and 1.01 to 5 nM in assay [2] (setting [4]).

As for `CC[C@@H]1C[C@H](C)CC/C=C\[C@@H]2C[C@@]2(C(=O)NS(=O)(=O)C2CC2)NC(=O)[C@@H]2C[C@@H](Oc3nc4cc(OC)ccc4nc3C(C)C)CN2C(=O)[C@H]1NC(=O)OC(C)(C)C` [Compound 4272, tert-butyl ((2R,6S,7R,9R,13aS,14aR,16aS,Z)-14a-((cyclopropylsulfonyl)carbamoyl)-7-ethyl-2-((3-isopropyl-7-methoxyquinoxalin-2-yl)oxy)-9-methyl-5,16-dioxo-1,2,3,5,6,7,8,9,10,11,13a,14,14a,15,16,16a-hexadecahydrocyclopropa[e]pyrrolo[1,2-a][1,4]diazacyclopentadecin-6-yl)carbamate], the EC50 in assay [1] (read-out: LE_1b (EC50, range)) was 1.01 to 5 nM; in assay [2] (read-out: LE_1a (EC50, range)), 5.01 to 35 nM.

Turning to `CC[C@@H]1C[C@H](C)CC/C=C\[C@@H]2C[C@@]2(C(=O)NS(=O)(=O)C2CC2)NC(=O)[C@@H]2C[C@@H](Oc3nc4cc(OC)ccc4nc3C(C)C)CN2C(=O)[C@H]1NC(=O)OC(C)(C)C(F)(F)F` [Compound 4273], the EC50 was 1.01 to 5 nM in assay [1] (setting [3]) and 5.01 to 35 nM in assay [2] (setting [4]).

As to `CC[C@@H]1C[C@H](C)CC/C=C\[C@@H]2C[C@@]2(C(=O)NS(=O)(=O)C2(C)CC2)NC(=O)[C@@H]2C[C@@H](Oc3ncc(C(=O)O)c4cc(OC)ccc34)CN2C(=O)[C@H]1NC(=O)OC(C)(C)C(F)(F)F` [Compound 4276, 1-(((2R,6S,7R,9R,13aS,14aR,16aS,Z)-7-ethyl-9-methyl-14a-(((1-methylcyclopropyl)sulfonyl)carbamoyl)-5,16-dioxo-6-((((1,1,1-trifluoro-2-methylpropan-2-yl)oxy)carbonyl)amino)-1,2,3,5,6,7,8,9,10,11,13a,14,14a,15,16,16a-hexadecahydrocyclopropa[e]pyrrolo[1,2-a][1,4]diazacyclopentadecin-2-yl)oxy)-6-methoxyisoquinoline-4-carboxylic acid], the EC50 was in the range of 35 to 620 nM in assay [1] (read-out: LE_1b (EC50, range)) and 35 to 620 nM in assay [2] (read-out: LE_1a (EC50, range)).

`CC[C@@H]1C[C@H](C)CC/C=C\[C@@H]2C[C@@]2(C(=O)NS(=O)(=O)C2(C)CC2)NC(=O)[C@@H]2C[C@@H](Oc3ncc(C(=O)O)c4cc(OC)ccc34)CN2C(=O)[C@H]1NC(=O)OC(C)(C)C` [Compound 4277, 1-(((2R,6S,7R,9R,13aS,14aR,16aS,Z)-6-((tert-butoxycarbonyl)amino)-7-ethyl-9-methyl-14a-(((1-methylcyclopropyl)sulfonyl)carbamoyl)-5,16-dioxo-1,2,3,5,6,7,8,9,10,11,13a,14,14a,15,16,16a-hexadecahydrocyclopropa[e]pyrrolo[1,2-a][1,4]diazacyclopentadecin-2-yl)oxy)-6-methoxyisoquinoline-4-carboxylic acid]: the EC50 in assay [1] (read-out: LE_1b (EC50)) was 218 nM; in assay [1] (read-out: LE_1b (EC50, range)), 35 to 620 nM; in assay [2] (read-out: LE_1a (EC50)) it was at least 1000 nM; in assay [2] (read-out: LE_1a (EC50, range)) it was 35 to 620 nM.

As for `CC[C@@H]1C[C@H](C)CC/C=C\[C@@H]2C[C@@]2(C(=O)NS(=O)(=O)C2CC2)NC(=O)[C@@H]2C[C@@H](Oc3ncc(C(=O)O)c4cc(OC)ccc34)CN2C(=O)[C@H]1NC(=O)OC(C)(C)C` [Compound 4278, 1-(((2R,6S,7R,9R,13aS,14aR,16aS,Z)-6-((tert-butoxycarbonyl)amino)-14a-((cyclopropylsulfonyl)carbamoyl)-7-ethyl-9-methyl-5,16-dioxo-1,2,3,5,6,7,8,9,10,11,13a,14,14a,15,16,16a-hexadecahydrocyclopropa[e]pyrrolo[1,2-a][1,4]diazacyclopentadecin-2-yl)oxy)-6-methoxyisoquinoline-4-carboxylic acid], the EC50 is 35 to 620 nM in assay [1] (read-out: LE_1b (EC50, range)) and 35 to 620 nM in assay [2] (read-out: LE_1a (EC50, range)).

In general, EC50 refers to the concentration needed to bring the measured effect to its halfway point.
